From article PMC7439413 (Science Advances, 2020)
Blank lines part the entries; values can stand above or below the compound they belong to.

How the values were obtained:
[1] = test system: GRwt LBD-ligand complex / TIF2 peptide; assay: SPR: binding of GRwt-ligand complexes to immobilized TIF2 peptide; set-up: species or system human; conditions: stated for both TIF2 and PRGC1
[2] = test system: GRF602S-ligand-TIF2 complex; assay: CPMG relaxation dispersion NMR, GRF602S-ligand-TIF2; set-up: species or system human; conditions: GRF602S-dex-TIF2; 13C CPMG, 14.1 and 18.8 T, 298 K
[3] = test system: GRwt-ligand-PRGC1 complex; assay: CPMG relaxation dispersion NMR, GRwt-ligand-PRGC1; set-up: species or system human; conditions: GRwt-dex-PRGC1; 13C CPMG, 18.8 T, 298 K
human GR = target: T1, human GR (Homo sapiens, UniProt P04150); assay: GR reporter gene assay; assay type: cell-based; conditions: transactivation reporter gene assay, comparison among steroid ligands
T1 sequence (P04150 1-777): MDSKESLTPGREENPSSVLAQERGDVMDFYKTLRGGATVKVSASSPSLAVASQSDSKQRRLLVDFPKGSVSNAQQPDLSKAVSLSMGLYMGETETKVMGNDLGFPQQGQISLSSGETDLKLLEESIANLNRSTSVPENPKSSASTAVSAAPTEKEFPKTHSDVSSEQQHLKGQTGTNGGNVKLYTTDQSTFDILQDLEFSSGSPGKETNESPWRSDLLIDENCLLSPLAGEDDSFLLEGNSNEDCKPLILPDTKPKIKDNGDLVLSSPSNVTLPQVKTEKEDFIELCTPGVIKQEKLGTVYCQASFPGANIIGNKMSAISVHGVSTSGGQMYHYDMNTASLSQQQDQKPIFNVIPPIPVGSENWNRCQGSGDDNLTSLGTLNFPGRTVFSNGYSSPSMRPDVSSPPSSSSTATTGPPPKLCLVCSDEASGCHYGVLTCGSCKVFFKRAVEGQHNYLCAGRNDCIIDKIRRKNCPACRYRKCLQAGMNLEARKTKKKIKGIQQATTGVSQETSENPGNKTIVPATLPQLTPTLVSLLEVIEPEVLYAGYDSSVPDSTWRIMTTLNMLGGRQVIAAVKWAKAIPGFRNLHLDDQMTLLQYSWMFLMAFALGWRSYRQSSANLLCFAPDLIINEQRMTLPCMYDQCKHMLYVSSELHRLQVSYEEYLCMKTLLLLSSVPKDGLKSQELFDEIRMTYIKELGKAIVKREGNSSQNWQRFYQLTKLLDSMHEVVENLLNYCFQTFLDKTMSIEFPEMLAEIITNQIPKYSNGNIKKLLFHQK

GRwt-ligand-TIF2 complex = assay: CPMG relaxation dispersion NMR, GRwt-ligand-TIF2; set-up: species or system human; conditions: M752 13C CPMG, semiquantitative interpretation, 298 K
[4] = target: GRwt LBD-ligand complex / PRGC1 peptide (Homo sapiens, UniProt P04150); assay: SPR: binding of GRwt-ligand complexes to immobilized PRGC1 peptide; conditions: both GR constructs (GRwt and GRF602S), irrespective of ligand

coregulator-binding affinity rank of GRwt-ligand complex in words [1]: weakest affinity in both cases
Compound: C[C@]12CCC(=O)C=C1CC[C@@H]1[C@@H]2[C@@H](O)C[C@@]2(C)[C@H]1CC[C@]2(O)C(=O)CO [cortisol]

Compound: C[C@@H]1C[C@H]2[C@@H]3CCC4=CC(=O)C=C[C@]4(C)[C@@]3(F)[C@@H](O)C[C@]2(C)[C@@]1(O)C(=O)CO [dex, dexamethasone]
M565 relaxation dispersion in words [2]: shows relaxation dispersion in the GRF602S-dex-TIF2 complex, albeit of much lower amplitude
M752 relaxation dispersion in words [2]: marked relaxation dispersion profile
M565 relaxation dispersion in words [3]: does not show any dispersion

Compound: C[C@]12C=CC(=O)C=C1CC[C@@H]1[C@@H]2[C@@H](O)C[C@@]2(C)[C@H]1C[C@H]1O[C@@H](C3CCCCC3)O[C@]12C(=O)CO [dibC, desisobutyryl-ciclesonide]
coregulator-binding affinity rank of GRwt-ligand complex in words [1]: highest affinity for coregulator peptides
Agonist potency/efficacy in words (human GR): partial agonist, dibC binds GR with high potency
population ratio of helix 12 conformations, pm/pM (GRwt-ligand-TIF2 complex): 0.1

affinity of GR constructs for coregulator in words [4]: higher affinity for PRGC1 than for TIF2
Compound: PPQEAEEPSLLKKLLLAPANT [PRGC1]
